Data: patent publication US20040023972A1, “Use of substituted imidazo[1,2-a]-pyridin-, -pyrimidin-and-pyrazin-3-yl-amine derivatives in the preparation of medicaments for inhibiting NOS” (Gruenenthal GmbH, priority 2000, published 2004)

molecular target: T1, NO synthase (Rattus norvegicus, UniProt P29476); assay: HTS-NOS assay (NOS assay): conversion of radioactive arginine, cation-exchanger filter plate; format: biochemical; conditions: 10 μM
T1 construct: the supernatant was then removed by decantation and frozen in portions at −80° C; from tissue; host or cells: rat cerebellum, 20,000 g supernatant of homogenate
Protocol: This assay enables the percentage inhibition of NO synthase by an active ingredient to be determined by measuring the NOS activity under the action of the active ingredient. NO synthase is mixed together with radioactively labelled arginine and the active ingredient under suitable conditions. After terminating the NO-forming reaction at a given time, the amount of unconverted arginine is determined directly or indirectly. A comparison of that amount with the amount of arginine that remains in a mixture of NOS and arginine without the addition of active ingredient and under otherwise identical conditions gives the % inhibition of NO synthase by the tested active ingredient. This assay can be carried out as follows:
(a) incubation of NO synthase with labelled arginine as substrate in a reaction vessel,
(b) separation of the labelled arginine from the labelled citrulline optionally formed as a product of the enzymatic reaction, at a time at which the citrulline concentration is increasing,
(c) measurement of the amount of arginine remaining in each case.
Separation is carried out over a filter plate membrane.
This NOS assay is suitable especially for “high throughput screening” (HTS) on microtitre plates (MTP).
In this HTS-NOS assay, radioactive arginine is used as substrate. The assay volume can be chosen in the range from 25 μl to 250 μl, according to the type of microtitre plate (MTP). Depending on the source of the enzyme used, co-factors and co-enzymes are added. Incubation of the batches on this microtitre plate (assay MTP) according to step (a) is carried out at room temperature and is for 5 to 60 minutes according to the enzyme activity used (units). At the end of the incubation (step (a)), the plate is placed into a cell harvester which is equipped with a MTP having a cation-exchanger membrane as the filter base (filter MTP). All batches of the assay MTP are transferred to the filter MTP and filtered off with suction over a cation-exchanger filter plate, a paper filter charged with phosphate groups. The filter MTP is then washed with buffer or water. By means of this procedure, the arginine substrate that remains is bound to the cation exchanger, while the enzymatically formed radioactive citrulline is washed out quantitatively. After drying the filter MTP and adding scintillation liquid, the bound arginine can be counted using a scintillation counter. An uninhibited NOS reaction is reflected in low radioactivity. An inhibited enzyme reaction means that the radioactive arginine has not been converted. This means that a high level of radioactivity is found on the filter.
Rat cerebella were used as the starting tissue. The animals were anaesthetized and sacrificed, the brain tissue, the cerebellum, was removed by dissection, 1 ml of enzyme preparation buffer was added per rat cerebellum (4° C.), and disintegration was carried out using a Polytron homogeniser for 1 minute at 6000 rpm, followed by centrifugation for 15 minutes at 4° C. and 20,000 g; the supernatant was then removed by decantation and frozen in portions at −80° C. (the precipitate was discarded).
96-well MTP having a well capacity of <250 μl were used.
Pipetting sequence: see Table 1.
When the pipetting operation was complete, a cover was placed on the MTP (assay MTP), and incubation was at 25° C. (room temperature (RT)) for from 5 to 60 minutes, according to the amount and activity of the enzyme used.
The contents of the assay MTP were then transferred with the aid of a 96-well cell harvester to a 96-well cation exchanger MTP (filter MTP) and filtered off with suction. This was followed by washing once with […] of H2O (from a bath).
The plate was then dried for 1 hour at 60° C. in a drying cabinet. The underside of the filter MTP was then accurately sealed from beneath with a “back seal”. 35 μl of scintillation fluid per well were then added by means of a pipette. The upper side of the plate was also sealed with a “top seal”. […]

Row | HTS-NOS assay: % inhibition (10 μM) [%] | SMILES
1 | 59 | Cc1cc(C)n2c(NC(C)(C)CC(C)(C)C)c(C)nc2c1 [Example 9, (1,1,3,3-Tetramethyl-butyl)-(2,5,7-trimethyl-imidazol[1,2-a]pyridin-3-yl)-amine]
2 | 54 | Cc1ccn2c(NC3CCCCC3)c(-c3ccccc3C)nc2c1 [Example 10, Cyclohexyl-(7-methyl-2-o-tolyl-imidazol[1,2-a]pyridin-3-yl)-amine]
3 | 57 | Cc1ccn2c(NC3CCCCC3)c(-c3ccccc3C(F)(F)F)nc2c1 [Example 13, Cyclohexyl-[7-methyl-2-(2-trifluorO-methyl-phenyl)-imidazo[1,2-a]pyridin-3-yl]-amine]

Row | SMILES | HTS-NOS assay: % inhibition (10 μM) [%]
4 | C#[N+]CCCCCCNc1c(-c2ccc[nH]2)nc2cc(C)cc(C)n12 [Example 4, {6-[5,7-Dimethyl-2-(1H-pyrrol-2-yl)-imidazo[1,2-a]pyridin-3-ylamino]-hexyl}-methylidyne-ammonium] | 54
5 | C#[N+]CCCCCCNc1c(-c2cccnc2)nc2cc(C)ccn12 [Example 19, Methylidyne-[6-(7-methyl-2-pyridin-3-yl-imidazo[1,2-a]pyridin-3-ylamino)-hexyl]-ammonium] | 53

same assay, conditions: read-out: HTS-NOS assay: % inhibition (10 μM)

Row | inhibition at 10 µM [%] | SMILES
6 | 67 | Cc1cc(C)n2c(NC(C)(C)C)c(C)nc2c1 [Example 14, Tert-butyl-(2,5,7-trimethyl-imidazo[1,2-a]-pyridin-3-yl)-amine]
7 | 59 | Cc1ccn2c(NC(C)(C)CC(C)(C)C)c(-c3cccnc3)nc2c1 [Example 15, (7-Methyl-2-pyridin-3-yl-imidazo[1,2-a]-pyridin-3-yl)-(1,1,3,3-tetramethyl-butyl)-amine]
8 | 56 | Cc1ccn2c(NC3CCCCC3)c(-c3cccc4ccccc34)nc2c1 [Example 16, Cyclohexyl-(7-methyl-2-naphthalen-1-yl-imidazo[1,2-a]pyridin-3-yl)-amine]
9 | 51 | Cc1ccn2c(NC(C)(C)CC(C)(C)C)c(-c3ccccc3F)nc2c1 [Example 17, [2-(2-Fluoro-phenyl)-7-methyl-imidazo[1,2-a]pyridin-3-yl]-(1,1,3,3-tetramethyl-butyl)-amine]
10 | 50 | COC(=O)CNc1c(C)nc2cc(C)ccn12 [Example 18, (2,7-Dimethyl-imidazo[1,2-a]pyridin-3-ylamino)-acetic acid methyl ester]
11 | 64 | Cc1cc(C)n2c(NC(C)(C)C)c(-c3cccc(O)c3)nc2c1 [Example 20, 3-(3-Tert-butylamino-5,7-dimethyl-imidazo[1,2-a]pyridin-2-yl)-phenol]
12 | 53 | Cc1ccn2c(NC3CCCCC3)c(-c3ccccc3F)nc2c1 [Example 21, Cyclohexyl-(2-(2-fluoro-phenyl)-7-methyl-imidazo[1,2-a]pyridin-3-yl]-amine]
13 | 68 | Cc1cc(C)n2c(NC(C)(C)C)c(C3CCCCC3)nc2c1 [Example 22, Tert-butyl-(2-cyclohexyl-5,7-dimethyl-imidazo[1,2-a]pyridin-3-yl)-amine]
14 | 74 | Cc1ccn2c(NC3CCCCC3)c(-c3cccnc3)nc2c1 [Example 23, Cyclohexyl-(7-methyl-2-pyridin-3-yl-imidazo[1,2-a]pyridin-3-yl)-amine]
15 | 59 | Cc1ccn2c(NC(C)(C)C)c(-c3cccc(O)c3)nc2c1 [Example 24, 3-(3-Tert-butylamino-7-methyl-imidazo[1,2-a]pyridin-2-yl)-phenol]
16 | 60 | Cc1cc(C)n2c(NC(C)(C)C)c(-c3ccco3)nc2c1 [Example 25, Tert-butyl-(2-furan-2-yl-5,7-dimethyl-imidazo[1,2-a]pyridin-3-yl)-amine]
17 | 62 | Cc1cc(C)n2c(NC3CCCCC3)c(-c3ccco3)nc2c1 [Example 26, Cyclohexyl-(2-furan-2-yl-5,7-dimethyl-imidazo[1,2-a]pyridin-3-yl)-amine]
18 | 62 | Cc1cc(C)n2c(NC3CCCCC3)c(-c3cccnc3)nc2c1 [Example 27, Cyclohexyl-(5,7-dimethyl-2-pyridin-3-yl-imidazo[1,2-a]pyridin-3-yl)-amine]
19 | 50 | Cc1ccn2c(NC(C)(C)CC(C)(C)C)c(-c3ccco3)nc2c1 [Example 28, (2-Furan-2-yl-7-methyl-imidazo[1,2-a]-pyridin-3-yl)-(1,1,3,3-tetramethyl-butyl)-amine]
20 | 69 | Cc1ccn2c(NC(C)(C)CC(C)(C)C)c(-c3ccncc3)nc2c1 [Example 29, (7-Methyl-2-pyridin-4-yl-imidazo[1,2-a]-pyridin-3-yl)-(1,1,3,3-tetramethyl-butyl)-amine]
21 | 56 | CCCCNc1c(C2CCCCC2)nc2cc(C)ccn12 [Example 30, Butyl-(2-cyclohexyl-7-methyl-imidazo[1,2-a]pyridin-3-yl)-amine]
22 | 60 | Cc1cc(C)n2c(NC(C)(C)CC(C)(C)C)c(-c3cccc(O)c3)nc2c1 [Example 31, 3-[5,7-Dimethyl-3-(1,1,3,3-tetramethyl-butylamino)-imidazo[1,2-a]pyridin-2-yl]-phenol]

Second part, the molecule before the results:

Row | SMILES | inhibition at 10 µM [%]
23 | O=[N+]([O-])c1cccc2cn[nH]c12 [7-nitroindazole, reference compound] | 50
24 | Cc1ccn2c(NC(C)(C)C)c(-c3cccnc3)nc2c1 [Example 1, Tert-butyl-(7-methyl-2-pyridin-3-yl-imidazo[1,2-a]pyridin-3-yl)-amine] | 63
25 | Cc1cc(C)n2c(NC3CCCCC3)c(-c3ccncc3)nc2c1 [Example 2, Cyclohexyl-(5,7-dimethyl-2-pyridin-4-yl-imidazo[1,2-a]pyridin-3-yl)-amine] | 62
26 | Cc1cc(C)n2c(NC(C)(C)CC(C)(C)C)c(-c3ccncc3)nc2c1 [Example 3, (5,7-Dimethyl-2-pyridin-4-yl-imidazo[1,2-a]-pyridin-3-yl)-(1,1,3,3-tetramethyl-butyl)-amine] | 60
27 | COc1cccc(-c2nc3cc(C)cc(C)n3c2NC(C)(C)C)c1OC [Example 5, Tert-butyl-[2-(2,3-dimethoxy-phenyl)-5,7-dimethyl-imidazo[1,2-a]pyridin-3-yl]-amine] | 61
28 | COc1ccc(-c2nc3cc(C)ccn3c2NC(C)(C)CC(C)(C)C)cc1OC [Example 6, [2-(3,4-Dimethoxy-phenyl)-7-methyl-imidazo[1,2-a]pyridin-3-yl]-(1,1,3,3-tetramethyl-butyl)-amine] | 53
29 | Cc1ccn2c(NC3CCCCC3)c(-c3ccncc3)nc2c1 [Example 7, Cyclohexyl-(7-methyl-2-pyridin-4-yl-imidazo[1,2-a]pyridin-3-yl)-amine] | 65
30 | Cc1cc(C)n2c(NC(C)(C)CC(C)(C)C)c(-c3ccco3)nc2c1 [Example 8, (2-Furan-2-yl-5,7-dimethyl-imidazo[1,2-a]-pyridin-3-yl)-(1,1,3,3-tetramethyl-butyl)-amine] | 52
31 | Cc1ccn2c(NC3CCCCC3)c(-c3cccs3)nc2c1 [Example 11, Cyclohexyl-(7-methyl-2-thiophen-2-yl-imidazo[1,2-a]pyridin-3-yl)-amine] | 60
32 | Cc1cc(C)n2c(NC(C)(C)CC(C)(C)C)c(-c3cccnc3)nc2c1 [Example 12, (5,7-Dimethyl-2-pyridin-3-yl-imidazo[1,2-a]-pyridin-3-yl)-(1,1,3,3-tetramethyl-butyl)-amine] | 61
